EP0782854A2, “Use of isopropyl-2-(1,3-dithietan-2-ylidene)-2-(N-(4-methylthiazol-2-yl)carbamoyl)acetate as a cancer chemopreventive agent” (Yuhan Corporation, priority 1995, dated 1997)

Assays:
[1] = system: Salmonella typhimurium TA100; assay: Ames His+ reversion assay, mutagenesis induced by BPDE; format: cell-based; details: 25nmol BPDE; for No. of His+ revertant/plate: control (0 µg) 706
Description: (§1) The Ames His+ reversion assay was performed in accordance with the liquid preincubation method using Salmonella typhimurium TA100 as a test strain[see D.M. Maton and B. N. Ames, Mutation Res., 113, pp. 173-221(1983)].
(§2) 25nmol of BPDE was incubated with S. typhimurium TA100 in the absence or presence of a given amount of isopropyl 2-(1,3-dithietan-2-ylidene)-2-[N-(4-methylthiazol-2-yl)carbamoyl]acetate at 37 °C for 20 minutes.
(§3) Then, the mixture was diluted with soft agar, poured onto hard agar plates, and incubated for another 48 hours to allow the development of His+ revertant colonies. The data are expressed as average of values from duplicate analysis.

[2] = system: Salmonella typhimurium TA100; assay: Ames His+ reversion assay, mutagenesis induced by VC epoxide; format: cell-based
Description: as §1, §2, §3
The procedure of Test Example 1-2 was repeated except that Salmonella typhimurium TA100 was used as a test strain and vinyl carbamate epoxide(25 and 50nmol) was used as mutagens.

[3] = system: Salmonella typhimurium TA100 and TA1535; assay: Ames His+ reversion assay, mutagenesis induced by VC (Figure 1); format: cell-based; details: vinyl carbamate 10µmol; compound 2.5µg and 25µg; values only in Figure 1
Description: (§4) Male Sprague-Dawley rats (40 to 45 day old) were fed with a standard laboratory pellet diet and water ad libitum under standard conditions(12h light-12h dark cycle, temp.: 21±2°C). They were treated intraperitoneally with Aroclor 1254 (500mg/kg in corn oil) for 5 consecutive days prior to sacrifice. Rats were killed by CO2 asphyxiation, and their livers were immediately removed and perfused in situ with ice-cooled isotonic KCl solution. The liver tissue was weighed, minced, and homogenized in 3-fold volumes of ice-cooled 0.25M sucrose solution by employing a motorized Potter-Elvehjem glass-Teflon homogenizer. The homogenates were centrifuged at 9,000 X g for 30 minutes and the supernatant(S9 fraction) was used as the source of enzymes.
(§5) The Ames His+ reversion assay was performed in accordance with the liquid preincubation method using Salmonella typhimurium TA98 and TA100 as test strains[see D.M. Maton and B. N. Ames, Mutation Res., 113, pp. 173-221(1983)].
[…] Various amounts of isopropyl 2-(1,3-dithietan-2-ylidene)-2-[N-(4-methylthiazol-2-yl)carbamoyl]acetate were added thereto, and preincubated at 37°C for 20 minutes.
The mixture was then diluted with soft agar, poured onto hard agar plates, and incubated for another 48 hours to allow the development of His+ revertant colonies. The data were corrected for the numbers of spontaneous revertant. […]

[4] = system: mouse skin tumor; assay: Mouse skin tumor test, carcinogenesis induced by B[a]P or VC (gavage pretreatment, TPA promotion); format: in vivo, female CD-1 mice; details: 16 weeks, diallyl sulfide 0.2mg/10µl/g body wt.
Description: (§6) Inhibitory effect of isopropyl 2-(1,3-dithietan-2-ylidene)-2-[N-(4-methylthiazol-2-yl)carbamoyl]acetate on mouse skin tumor was also investigated.
trioctanoin, or isopropyl 2-(1,3-dithietan-2-ylidene)-2-[N-(4-methylthiazol-2-yl)carbamoyl]acetate(0.15mg/10µl/g body wt.) or diallyl sulfide(0.2mg/10µl/g body wt.) suspended in trioctanoin were administered to female CD-1 mice(6 weeks old) by gastric gavage method 24 hours and 1 hour prior to the intraperitoneal injection of B[a]P(0.3µmol) or VC(11.5µmol) in 0.2ml acetone or the same volume of acetone alone.
One week after the initiation, animals were administered topically with 15nmol TPA(12-O-tetradecanoyl phorbol-13-acetate) in 0.1ml acetone twice a week to promote carcinogenesis.
Tumors of at least 1 mm in diameter were counted and recorded at 16 weeks after initiation.

[5] = system: calf thymus DNA; assay: Covalent binding test of [3H]-B[a]P to DNA; format: biochemical; details: 37°C, 30 minutes, control (0 µM) 60±7.1
Description: 2ml of the mixture of 50mM potassium phosphate buffer (pH 7.4) containing 0.25µg of [^3H]-B[a]P(specific activity: 12.35mCi/mmol), 2mg of calf thymus DNA, 25mg of EDTA, NADPH(0.65mM), and 4 mg of hepatic postmitochondrial supernatant was incubated with isopropyl 2-(1,3-dithietan-2-ylidene)-2-[N-(4-methylthiazol-2yl)carbamoyl]acetate of various concentrations at 37°C for 30 minutes.
DNA was isolated by ethanol precipitation after the removal of proteins. DNA pellets thus obtained were successively rinsed with 75% ethanol containing 1% NaCl, 75% ethanol, absolute ethanol, acetone and ethyl ether, and then dried.
Dried DNA samples were dissolved in 15 mM NaCl-1.5mM sodium citrate buffer(pH 7.0). The DNA concentration was determined by diphenylamine method using calf thymus DNA as a standard[see K. Burton and G.B. Peterson, Biochem. J., 75, pp.17-27, 1960].
Aliqouts of DNA solutions were dissolved in Solvable(Du Pont/NEN Research Products, Boston, MA). After neutralization with glacial acetic acid, the levels of radio-labeled hydrocarbons covalently bound to DNA were determined by employing a liquid scintillation counter with the addition of Liquescent(National Diagnostics, Manville, NJ) as a cocktail.

[6] = system: Salmonella typhimurium TA98; assay: Ames His+ reversion assay, mutagenesis induced by B[a]P (liquid preincubation, S9); format: cell-based; details: 2.5µg B[a]P, control (0 µg) 116±3.6
Description: as §4, §5
(§7) Each of TA98 and TA100(1 to 2 x 10^9/plate) and 2.5µg of B[a]P dissolved in DMSO were added to the Aroclor 1254-induced rat hepatic postmitochondrial supernatant containing NADPH-generating system obtained above([…] containing about 2mg protein). Various amounts of isopropyl 2-(1,3-dithietan-2-ylidene)-2-[N-(4-methylthiazol-2-yl)carbamoyl]acetate were added thereto, and preincubated at 37°C for 20 minutes.
(§8) The mixture was then diluted with soft agar, poured onto hard agar plates, and incubated for another 48 hours to allow the development of His+ revertant colonies. The data were corrected for the numbers of spontaneous revertant.

[7] = system: Salmonella typhimurium TA100; assay: as above; format: cell-based; details: 2.5µg B[a]P, control (0 µg) 248±26.0
Description: as §4, §5, §7, §8

[8] = system: mouse skin tumor; assay: Mouse skin tumor test, carcinogenesis induced by VC (topical initiation, TPA promotion); format: in vivo, female ICR mice; details: VC 5.8 µmol topical, pretreatment 2.5µmol compound or 8µmol diallyl sulfide
Description: as §6
The dorsal region of female ICR mice (6- to 7-week old) was shaved. Groups of 30 mice were administered with 2.5µmol isopropyl 2-(1,3-dithietan-2-ylidene)-2-[N-(4-methylthiazol-2-yl)carbamoyl]acetate in 0.2% sodium carboxymethyl cellulose or 8µmol of diallyl sulfide in 0.1M sterilized potassium phosphate buffer. After 10 minutes, the mice were administered topically with VC(5.8 µmol) in 0.2ml acetone containing 15% DMSO. Control group was administered with VC alone.
One week after the initiation, the mice were administered topically with 15nmol TPA(12-O-tetradecanoyl phorbol-13-acetate)in 0.1 ml acetone twice a week to promote carcinogenic process.
Tumors of at least 1 mm in diameter were counted and recorded every other week. The results are shown in Table V. Numbers in parentheses indicate the % of tumor bearing mice.

[9] = initiator B[a]P 0.3µmol, gavage pretreatment compound 0.15mg/10µl/g, trioctanoin control 6.7±5.1
[10] = initiator B[a]P 0.3µmol, gavage pretreatment compound 0.15mg/10µl/g, trioctanoin control 92
[11] = initiator VC 11.5µmol, gavage pretreatment compound 0.15mg/10µl/g, trioctanoin control 1.0±1.6
[12] = initiator VC 11.5µmol, gavage pretreatment compound 0.15mg/10µl/g, trioctanoin control 58
[13] = initiator acetone alone, gavage 24 hours and 1 hour before, compound 0.15mg/10µl/g

Cc1csc(NC(=O)C(C(=O)OC(C)C)=C2SCS2)n1 [Compound, Isopropyl 2-(1,3-dithietan-2-ylidene)-2-[N-(4-methylthiazol-2-yl)carbamoyl]acetate]
% inhibition ([1]; compound 2.5 µg): 58%
No. of His+ revertant/plate ([1]; compound 2.5 µg): 301
% inhibition ([1]; compound 10 µg): 69%
No. of His+ revertant/plate ([1]; compound 10 µg): 217
% inhibition ([1]; compound 25 µg): 74%
No. of His+ revertant/plate ([1]; compound 25 µg): 180
No. of His+ revertant/plate ([2]; VC epoxide 25 nmol, compound 2.5 µg, control (0 µg) 283): 247
No. of His+ revertant/plate ([2]; VC epoxide 25 nmol, compound 10 µg, control (0 µg) 283): 239
No. of His+ revertant/plate ([2]; VC epoxide 25 nmol, compound 25 µg, control (0 µg) 283): 201
No. of His+ revertant/plate ([2]; VC epoxide 50 nmol, compound 2.5 µg, control (0 µg) 598): 541
No. of His+ revertant/plate ([2]; VC epoxide 50 nmol, compound 10 µg, control (0 µg) 598): 509
No. of His+ revertant/plate ([2]; VC epoxide 50 nmol, compound 25 µg, control (0 µg) 598): 471
effect on mutagenesis induced by VC [3]: dose-dependently inhibit
Ave. No. of tumor/mouse [4, 9]: 2.8±3.4
% mice with papillomas [4, 10]: 72%
Ave. No. of tumor/mouse [4, 11]: 0.5±0.8
% mice with papillomas [4, 12]: 36%
% mice with papillomas [4, 13]: 0%
Ave. No. of tumor/mouse [4, 13]: 0
Covalent DNA binding ([5]; compound 5 µM): 22 ± 2.0 pmol
Covalent DNA binding ([5]; compound 50 µM): 16 ± 3.2 pmol
No. of His+ revertant/plate ([6]; compound 1 µg): 84±16.1
No. of His+ revertant/plate ([6]; compound 5 µg): 48±3.2
No. of His+ revertant/plate ([6]; compound 25 µg): 23±2.5
No. of His+ revertant/plate ([7]; compound 1 µg): 205±23.1
No. of His+ revertant/plate ([7]; compound 5 µg): 140±4.6
No. of His+ revertant/plate ([7]; compound 25 µg): 93±8.7
Average No. of papillomas/mouse ([8]; week 14, VC alone 0.9±1.1): 0.2±0.5
% of tumor bearing mice ([8]; week 14, VC alone 53): 20%
Average No. of papillomas/mouse ([8]; week 16, VC alone 1.4±1.7): 0.4±0.7
% of tumor bearing mice ([8]; week 16, VC alone 63): 30%
Average No. of papillomas/mouse ([8]; week 18, VC alone 1.8±1.9): 0.6±0.9
% of tumor bearing mice ([8]; week 18, VC alone 67): 40%
Average No. of papillomas/mouse ([8]; week 20, VC alone 2.4±2.1): 0.8±1.0
% of tumor bearing mice ([8]; week 20, VC alone 70): 50%

C=CCSCC=C [Diallyl sulfide, reference compound]
Ave. No. of tumor/mouse [4, 9]: 4.0±5.6
% mice with papillomas [4, 10]: 64%
Ave. No. of tumor/mouse [4, 11]: 0.4±0.9
% mice with papillomas [4, 12]: 28%
% mice with papillomas [4, 13]: 0%
Ave. No. of tumor/mouse [4, 13]: 0
Average No. of papillomas/mouse ([8]; week 14, VC alone 0.9±1.1): 0.2±0.5
% of tumor bearing mice ([8]; week 14, VC alone 53): 17%
Average No. of papillomas/mouse ([8]; week 16, VC alone 1.4±1.7): 0.5±0.9
% of tumor bearing mice ([8]; week 16, VC alone 63): 30%
Average No. of papillomas/mouse ([8]; week 18, VC alone 1.8±1.9): 0.7±1.1
% of tumor bearing mice ([8]; week 18, VC alone 67): 37%
Average No. of papillomas/mouse ([8]; week 20, VC alone 2.4±2.1): 0.9±1.1
% of tumor bearing mice ([8]; week 20, VC alone 70): 50%
